Test results from patent publication US11236055B2 (Venenum Biodesign, LLC, priority 2016, dated 2022).

What was measured:
[1] = target: T1, human TGR5 receptor (Homo sapiens, UniProt Q8TDU6); assay: Human TGR5 cAMP production assay; assay type: cell-based; settings: human TGR5, luminescent cAMP assay; coded A-D; read-out: Human TGR5 Lum. cAMP Activity (EC50)
T1 construct: host or cells: CHO-K1 (hTGR5-CHO cells)
T1 sequence (Q8TDU6 1-330): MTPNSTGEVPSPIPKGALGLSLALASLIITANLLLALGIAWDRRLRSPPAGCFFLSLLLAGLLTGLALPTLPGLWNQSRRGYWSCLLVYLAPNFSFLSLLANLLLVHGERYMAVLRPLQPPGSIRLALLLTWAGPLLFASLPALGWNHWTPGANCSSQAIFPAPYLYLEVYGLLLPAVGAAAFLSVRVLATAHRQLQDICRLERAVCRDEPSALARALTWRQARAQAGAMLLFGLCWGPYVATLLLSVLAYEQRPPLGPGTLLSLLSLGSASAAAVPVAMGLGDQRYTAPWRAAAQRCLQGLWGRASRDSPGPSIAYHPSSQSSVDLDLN
Summary of the method: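 Intracellular cAMP read by luminescent enzyme-complementation (XS+) after overnight development, following 1 h room-temperature compound treatment of hTGR5-CHO-K1 cells in IBMX plus anti-cAMP antibody. Compounds tested as half-log dilution series; EC50 derived.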

[2] = target: T2, mouse TGR5 receptor (Mus musculus, UniProt Q80SS6); assay: Mouse TGR5 cAMP production assay (luminescent, DiscoveRx cAMP XS+); assay type: cell-based; settings: HEK293-EBNA cells overexpressing mouse TGR5, luminescent cAMP XS+; coded A-D; read-out: Mouse TGR5 Lum. cAMP Activity (EC50)
T2 construct: expressed in transfected cells; host or cells: HEK293-EBNA (293 c18, ATCC CRL10852), Hygromycin B selection
T2 sequence (Q80SS6 1-329): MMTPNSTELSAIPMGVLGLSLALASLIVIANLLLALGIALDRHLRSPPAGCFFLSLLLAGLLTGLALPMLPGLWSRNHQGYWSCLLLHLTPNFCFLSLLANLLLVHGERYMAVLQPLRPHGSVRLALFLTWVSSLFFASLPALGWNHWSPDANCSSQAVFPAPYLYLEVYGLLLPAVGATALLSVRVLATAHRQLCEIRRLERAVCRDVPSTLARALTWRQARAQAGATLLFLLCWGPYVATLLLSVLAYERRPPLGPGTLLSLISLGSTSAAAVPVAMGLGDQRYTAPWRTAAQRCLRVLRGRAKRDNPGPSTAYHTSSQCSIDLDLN
Description: Mouse TGR5 cAMP Production Assay
We evaluated compounds of the present invention for their ability to induce cAMP production in HEK-EBNA cells overexpressing the mouse TGR5 receptor. Human embryonic kidney cells (HEK293-EBNA) stably expressing mouse TGR5 receptor were established using the following procedure. Specifically, a commercially-obtained gene encoding mouse TGR5 (accession number BC116914) from Thermo Scientific (Waltham, Mass.) was cloned into an episomal expression vector. The resulting expression plasmid was then transfected into 293 c18 (ATCC® CRL10852™) cells, which express the Epstein-Barr virus nuclear antigen EBNA1 and can support the replication of episomal vectors. Selection for the plasmid was maintained with Hygromycin B. Cells were cultured and maintained in DMEM (Sigma; cat #6429) supplemented with 10% Fetal Bovine Serum, 1% penicillin/streptomycin, 2 mM L-alanine L-glutamine (GlutaMax), and 250 μg/mL Hygromycin.
Two cAMP production assays were developed.
1. Luminescent cAMP Production Assay
In this first cAMP production assay, the cAMP production was measured using DiscoveRx's cAMP XS+ kit following the manufacturer's recommended protocol.
Briefly, HEK293-EBNA cells stably overexpressing mouse TGR5 were harvested using non-enzymatic cell dissociation buffer (Sigma-Aldrich, St. Louis, Mo.), spun down, then resuspended in serum-free DMEM with 500 μM IBMX at a density of 1.25×10^6 cells/mL. 500 μL of cAMP antibody solution was added to […] of cell suspension and incubated at room temperature for 20 min.
Test compounds were serially diluted (half-log dilutions) in DMSO and then further diluted 1:50 in PBS, 10 mM HEPES buffer. 2 μL of serially diluted compound was added to a 384-well low volume plate (Greiner cat #784075) and centrifuged briefly. 2 μL of the cell/cAMP antibody mixture was then added to each compound-containing well and allowed to incubate at room temperature for one (1) hour. Following incubation, the XS+ kits' ED/Lysis/CL Substrate Working Solution was prepared following the manufacturer's recommended protocol and 4 μL was added to each well of the plate. The plate was then incubated for one (1) hour at room temperature. Following incubation, 4 μL of (Enzyme Acceptor) EA reagent was added to the plate and allowed to incubate overnight at room temperature. Luminescent signal was then detected using the Viewlux instrument (Perkin-Elmer, Waltham, Mass.).
In Table 33, EC50 values for both human and mouse cells were determined according to the TGR5 cAMP assays described above.

In the case of `COc1cnccc1-c1cccc([C@H](C)NS(=O)(=O)c2ccccc2[N+](=O)[O-])c1` [Compound 2BP], the EC50 [1] is reported as < 100 nM and the EC50 [2] is reported as 100 to 999 nM.
`CC(C)(NS(=O)(=O)c1cccc(C(F)(F)F)c1)c1cccc(-c2ccnc3ccccc23)c1` [Compound 1AJ] gave an EC50 [1] of 1000 to 30000 nM and an EC50 [2] of 1000 to 30000 nM.
`Cc1noc(C)c1-c1cccc(CNS(=O)(=O)c2cc(F)cc(C(F)(F)F)c2)c1` [Compound 2AG] was tested, and the EC50 [1] was 1000 to 30000 nM and the EC50 [2] was > 30000 nM.
With `CC(C)(NS(=O)(=O)c1cccc(C(F)(F)F)c1)c1cccc(-c2ccnc(N)c2)c1` [Compound 1AL] the EC50 [1] was 100 to 999 nM and the EC50 [2] was 1000 to 30000 nM.
`C[C@@H](NS(=O)(=O)c1cccc(C(F)(F)F)c1)c1cccc(-c2ccncc2Cl)c1` [Compound 1BC] showed an EC50 [1] of 100 to 999 nM and an EC50 [2] of 100 to 999 nM.
In the case of `COc1cnccc1-c1cccc(C(C)(C)NS(=O)(=O)c2cccc(C)c2)c1` [Compound 2AZ], the EC50 [1] is reported as 100 to 999 nM and the EC50 [2] is reported as 100 to 999 nM.
For `Cc1cc(-c2cccc(C(C)(C)NS(=O)(=O)c3cccc(C(F)(F)F)c3)c2)ccn1` [Compound 1AK], the EC50 [1] was 100 to 999 nM and the EC50 [2] was 1000 to 30000 nM.
`CC(C)(NS(=O)(=O)c1cccc(C(F)(F)F)c1)c1cccc(-c2ccncc2F)c1` [Compound 1AE] was tested, and the EC50 [1] was < 100 nM and the EC50 [2] was 1000 to 30000 nM.
With `C[C@H](NS(=O)(=O)c1cccc(C(F)(F)F)c1)c1cccc(-c2ccncc2)c1` [Compound 1AW] the EC50 [1] was 100 to 999 nM and the EC50 [2] was 1000 to 30000 nM.
`COc1cnccc1-c1ccnc(CNS(=O)(=O)c2cccc(C(F)(F)F)c2)c1` [Compound 1BR] showed an EC50 [1] of 1000 to 30000 nM and an EC50 [2] of 1000 to 30000 nM.
Molecule `Nc1cnccc1-c1cccc(CNS(=O)(=O)c2cccc(C(F)(F)F)c2)c1` [Compound 1BG] has an EC50 [1] of 100 to 999 nM and an EC50 [2] of 1000 to 30000 nM.
`COc1cnccc1-c1cccc(C(C)(C)NS(=O)(=O)c2ccccc2Cl)c1` [Compound 2AX] gave an EC50 [1] of 100 to 999 nM and an EC50 [2] of 100 to 999 nM.
Work on `Cc1cnccc1-c1cccc(CNS(=O)(=O)c2cccc(C(F)(F)F)c2)c1` [Compound 1BF] yielded an EC50 [1] of 100 to 999 nM and an EC50 [2] of 100 to 999 nM.
`Cc1noc(C)c1-c1cccc(CNS(=O)(=O)c2cccc(C(F)(F)F)c2)c1` [Compound 1, N-(3-(3,5-dimethylisoxazol-4-yl)benzyl)-3-(trifluoromethyl)benzenesulfonamide] showed an EC50 [1] of 1000 to 30000 nM and an EC50 [2] of 1000 to 30000 nM.
`Cc1noc(C)c1-c1cccc(CNS(=O)(=O)c2ccc(F)c(C(F)(F)F)c2)c1` [Compound 2AE] was tested, and the EC50 [1] was 1000 to 30000 nM and the EC50 [2] was > 30000 nM.
Work on `O=S(=O)(NCc1cc(-c2ccncc2Cl)ccc1F)c1cccc(C(F)(F)F)c1` [Compound 1AV] yielded an EC50 [1] of 1000 to 30000 nM and an EC50 [2] of 1000 to 30000 nM.
For `O=S(=O)(NCc1ccc(F)c(-c2ccncc2)c1)c1cccc(C(F)(F)F)c1` [Compound 1AS], the EC50 [1] was 100 to 999 nM and the EC50 [2] was 1000 to 30000 nM.
In the case of `O=S(=O)(NCc1cccc(-c2ccncc2)c1)c1cccc(C(F)(F)F)c1` [Compound 1AR], the EC50 [1] is reported as 100 to 999 nM and the EC50 [2] is reported as 1000 to 30000 nM.
In the case of `Cc1noc(C)c1-c1cccc(CNS(=O)(=O)c2ccc(Cl)cc2)c1` [Compound 1AB], the EC50 [1] is reported as 1000 to 30000 nM and the EC50 [2] is reported as > 30000 nM.
`CC(C)(NS(=O)(=O)c1cccc(C(F)(F)F)c1)c1cccc(-c2ccncc2Cl)c1` [Compound 1AF] was tested, and the EC50 [1] was 100 to 999 nM and the EC50 [2] was 100 to 999 nM.
For `CC(C)(NS(=O)(=O)c1cccc(C(F)(F)F)c1)c1cccc(-c2ccnc(Cl)c2)c1` [Compound 1AG], the EC50 [1] was 100 to 999 nM and the EC50 [2] was 1000 to 30000 nM.
`O=[N+]([O-])c1ccccc1S(=O)(=O)NCc1cccc(-c2ccncc2)c1` [Compound 2AO] showed an EC50 [1] of 1000 to 30000 nM and an EC50 [2] of 1000 to 30000 nM.
`COc1cnccc1-c1cccc(C(C)(C)NS(=O)(=O)c2cccc(Cl)c2)c1` [Compound 2AY] gave an EC50 [1] of 100 to 999 nM and an EC50 [2] of 100 to 999 nM.
For `O=S(=O)(NCc1cccc(-c2ccncc2C(F)(F)F)c1)c1cccc(C(F)(F)F)c1` [Compound 1BH], the EC50 [1] was 1000 to 30000 nM and the EC50 [2] was 1000 to 30000 nM.
For `COc1cnccc1-c1cccc(C(C)(C)NS(=O)(=O)c2cc(Br)cc(C(F)(F)F)c2)c1` [Compound 2BB], the EC50 [1] was 100 to 999 nM and the EC50 [2] was 100 to 999 nM.
In the case of `O=S(=O)(NCc1cccc(-c2cc(C(F)(F)F)ncn2)c1)c1cccc(C(F)(F)F)c1` [Compound 1BJ], the EC50 [1] is reported as 1000 to 30000 nM and the EC50 [2] is reported as > 30000 nM.
